Laboratory results as given in patent EP1116715A1, “Tetramic acid derivatives useful in medicines and foodstuffs” (priority 2000, dated 2001).
In brackets after ≈: the same amount, converted by molar mass.

Legend:
Type in all cases: cell-based
Bakterien = assay: antibacterial activity of synthetic product compared with natural reutericyclin; conditions: relative to natural reutericyclin
Excerpt: (§1) Das Wirkungsspektrum von Reutericyclin wurde mit Hilfe des Naturstoffes untersucht, der aus Lactobacillus reuteri LTH 2584 wie oben beschrieben isoliert wurde. Die antimikrobielle Aktivität wurde gegenüber einer Vielzahl unterschiedlicher Bakterien getestet. Hierfür wurden Verdünnungstest auf Mikrotiterplatten durchgeführt. Kulturen der verschiedenen Bakterien wurden mit Verdünnungen der erfindungsgemässen Verbindung behandelt und die Konzentration bestimmt, die eine Hemmung des Wachstums der Bakterien im Vergleich mit Kontrollen beobachten ließ.
Dies liegt vermutlich daran, daß 6 im Gegensatz zum natürlichen Reutericyclin als Razemat vorliegt.

[1] = system: Lactobacillus sanfranciscensis (ATCC27651); assay: microtitre plate dilution test, minimal inhibitory concentration; conditions: natural product isolated from Lactobacillus reuteri LTH 2584; growth inhibition versus controls; read-out: minimale inhibitorische Konzentration
Excerpt: as §1
(§2) Diese sogenannte minimale inhibitorische Konzentration wurde für das Bakterium Lactobacillus sanfranciscensis (ATCC27651) mit 0,1 +/-0,05 mg/l bestimmt.

L. curvatus (LTH1174) = assay: microtitre plate dilution test, growth inhibition; conditions: compared with L. sanfranciscensis (MIC 0,1 +/-0,05 mg/l)
Excerpt: as §1, §2

L. sakei (LTH673) = assay: microtitre plate dilution test, growth inhibition; conditions: compared with L. sanfranciscensis (MIC 0,1 +/-0,05 mg/l)
Excerpt: as §1, §2

[2] = system: Enterococcus Faecalis (DSM20409); assay: microtitre plate dilution test, growth inhibition; conditions: natural product, read-out: Konzentration, die eine Hemmung des Wachstums der Bakterien bewirkte
Excerpt: as §1
(§3) Einige humanpathogene Keime, wie beispielsweise Enterococcus Faecalis (DSM20409) erwies sich sogar noch als deutlich empfindlicher gegenüber Reutericyclin. Hier bewirkte eine Konzentration von etwa 0,05 mg/l eine Hemmung des Wachstums der Bakterien. […] Es war also keine Kreuzresistenz festzustellen.

[3] = system: Antibiotika-resistente klinische Isolate (Enterococcus Faecalis); assay: microtitre plate dilution test, antibiotic-resistant clinical isolates; conditions: no cross-resistance found
Excerpt: as §1, §3

Escherichia coli = assay: microtitre plate dilution test, growth inhibition; conditions: Gram-negative bacteria; at the tested concentrations
Excerpt: as §1

[4] = system: Listeria ivanovii (DSM20750); assay: microtitre plate dilution test, growth inhibition; conditions: compared with Lactobacillus sanfranciscensis
Excerpt: as §1

[5] = system: Staphylocokus aureus (SG511); assay: microtitre plate dilution test, growth inhibition; conditions: compared with Lactobacillus sanfranciscensis
Excerpt: as §1

Hefen = assay: microtitre plate dilution test, growth inhibition; conditions: yeasts; at the tested concentrations

SMILES	Menge für gleiche Ergebnisse wie eine Menge des natürlichen Reutericyclins (Bakterien; as a rule)	antibakterielle Wirkung (Bakterien)	MIC [1] [µg/mL]	Empfindlichkeit gegenüber Reutericyclin (L. curvatus (LTH1174))	Empfindlichkeit gegenüber Reutericyclin (L. sakei (LTH673))	MIC [2] [µg/mL]	Empfindlichkeit gegenüber Reutericyclin [3]	Empfindlichkeit gegenüber Reutericyclin (Escherichia coli)	Empfindlichkeit gegenüber Reutericyclin [4]	Empfindlichkeit gegenüber Reutericyclin [5]	Empfindlichkeit gegenüber Reutericyclin (Hefen)
CCCCCCC/C=C/C(=O)N1C(O)=C(C(C)=O)C(=O)C1CC(C)C (racemic) [compound 6, N-trans-2-Decenoyl-3-acetyl-5-iso-butylpyrrolidin-2,4-dion]	doppelte Mengen	etwas schwächer									
CCCCCCC/C=C/C(=O)N1C(O)=C(C(C)=O)C(=O)[C@H]1CC(C)C [Reutericyclin, 5R-1-(2-trans-Decenoyl)-3-acetyl-5-isobutyl-delta2-pyrrolin4-on]			0.1 (≈ 0.286 µM)	sehr ähnliche Empfindlichkeiten	sehr ähnliche Empfindlichkeiten	~0.05 (≈ 0.143 µM)	ebenfalls eine Empfindlichkeit	nicht empfindlich	in einer entsprechenden Größenordnung wie Lactobacillus sanfranciscensis	in einer entsprechenden Größenordnung wie Lactobacillus sanfranciscensis	nicht empfindlich
